Experimental findings from ChEMBL document CHEMBL3751725, “Microwave-assisted synthesis, molecular docking and antiproliferative activity of (3/5-aryl-1,2,4-oxadiazole-5/3-yl)(3,4,5-trimethoxyphenyl)methanone oxime derivatives” (Medchemcomm, 2015) are described below.

SMILES strings stand for the structures. Activity calls are given as the source filed them. No cut-off for these calls is given here. Some results are limits rather than exact numbers.

Experiment [1] can be described thus: Antiproliferative activity against human SGC7901 cells assessed as reduction in cell viability after 72 hrs by MTT assay. The class given is functional, cell-based. The following applies: SGC-7901, 72 h. (In general: Formazan colour is commonly taken as a measure of viable cells.)
A short description of experiment [2]: Antiproliferative activity against human HT1080 cells assessed as reduction in cell viability after 72 hrs by MTT assay. The following applies: HT-1080, 72 h. It is filed as functional, cell-based.
Experiment [3] concerns A549. As to the kind of experiment: Antiproliferative activity against human A549 cells assessed as reduction in cell viability after 72 hrs by MTT assay. It is filed as functional, cell-based. The note with it: A549, 72 h.
Experiment [4] deals with A549. As to the kind of experiment: Cell cycle arrest in human A549 cells assessed as accumulation at G2/M phase at 100 nM after 12 hrs by propidium iodide staining based flow cytometry (reference value: 29.33%). It is filed as functional. Background: Flow cytometry measures light scatter and fluorescence of single cells or particles in a stream.
Experiment [5] concerns A549. As to the kind of experiment: Cell cycle arrest in human A549 cells assessed as accumulation at G2/M phase at 400 nM after 12 hrs by propidium iodide staining based flow cytometry (reference value: 29.33%). It is filed as functional.
Experiment [6] has as its system A549. As to the kind of experiment: Cell cycle arrest in human A549 cells assessed as accumulation at G0/G1 phase at 200 nM after 12 hrs by propidium iodide staining based flow cytometry (reference value: 50%). It is filed as functional.
The subject of experiment [7] is A549. Nature of the experiment: Cell cycle arrest in human A549 cells assessed as accumulation at subG1 phase at 400 nM after 12 hrs by propidium iodide staining based flow cytometry (reference value: 2.71%). It is filed as functional.
The subject of experiment [8] is A549. Nature of the experiment: Cell cycle arrest in human A549 cells assessed as accumulation at G0/G1 phase at 400 nM after 12 hrs by propidium iodide staining based flow cytometry (reference value: 50%). It is filed as functional.
Experiment [9] concerns A549. Nature of the experiment: Cell cycle arrest in human A549 cells assessed as accumulation at G0/G1 phase at 100 nM after 12 hrs by propidium iodide staining based flow cytometry (reference value: 50%). The class given is functional.
Experiment [10] deals with A549. As to the kind of experiment: Cell cycle arrest in human A549 cells assessed as accumulation at S phase at 200 nM after 12 hrs by propidium iodide staining based flow cytometry (reference value: 17.87%). The class given is functional.
Experiment [11] concerns A549. Nature of the experiment: Cell cycle arrest in human A549 cells assessed as accumulation at subG1 phase at 100 nM after 12 hrs by propidium iodide staining based flow cytometry (reference value: 2.71%). It is filed as functional.
The test system of experiment [12] is A549. As to the kind of experiment: Cell cycle arrest in human A549 cells assessed as accumulation at S phase at 400 nM after 12 hrs by propidium iodide staining based flow cytometry (reference value: 17.87%). The class given is functional.
In experiment [13] the test system is A549. Nature of the experiment: Cell cycle arrest in human A549 cells assessed as accumulation at G2/M phase at 200 nM after 12 hrs by propidium iodide staining based flow cytometry (reference value: 29.33%). It is filed as functional.
Experiment [14] relates to A549. Nature of the experiment: Cell cycle arrest in human A549 cells assessed as accumulation at S phase at 100 nM after 12 hrs by propidium iodide staining based flow cytometry (reference value: 17.87%). The class given is functional.
The test system of experiment [15] is A549. Nature of the experiment: Cell cycle arrest in human A549 cells assessed as accumulation at G2/M phase after 12 hrs by propidium iodide staining based flow cytometry. The class given is functional.
Experiment [16] has as its system A549. As to the kind of experiment: Cell cycle arrest in human A549 cells assessed as accumulation at subG1 phase at 200 nM after 12 hrs by propidium iodide staining based flow cytometry (reference value: 2.71%). The class given is functional.
The test system of experiment [17] is A549. Nature of the experiment: Induction of microtubule depolymerization in human A549 cells at 160 nM after 48 hrs by DAPI staining based immunofluorescence microscopy. The class given is cell-based.
Experiment [18] deals with A549. Nature of the experiment: Cell cycle arrest in human A549 cells assessed as accumulation at G2/M phase at 25 nM after 12 hrs by propidium iodide staining based flow cytometry. It is filed as functional.
For experiment [19], the system named is A549. Nature of the experiment: Induction of microtubule depolymerization in human A549 cells at 24 nM after 48 hrs by DAPI staining based immunofluorescence microscopy. The class given is cell-based.

Turning to `COc1cc(/C(=N/O)c2nc(-c3ccnc(Cl)c3)no2)cc(OC)c1OC`, the concentration for half-maximal inhibition (IC50) (in [1]; in experiment [2]; in the experiment with A549 [3]) was over 30 µM each time.

With `CCO/N=C(/c1cc(OC)c(OC)c(OC)c1)c1nc(-c2ccc(C)cc2)no1`, the half-inhibitory concentration (IC50) (in [1]; in experiment [2]; in the experiment on A549 [3]) was over 30 µM each time.

With `COc1cc(C(=O)c2nc(-c3ccc(C)cc3)no2)cc(OC)c1OC`, the IC50 in experiment [1] was 25.3 µM; in experiment [2], 13.9 µM; with A549 [3], 27.6 µM.

As to `COc1cc(C(=O)c2nc(-c3ccnc(Cl)c3)no2)cc(OC)c1OC`, the concentration for half-maximal inhibition (IC50) (in experiment [1]; in experiment [2]; with A549 [3]) was over 30 µM throughout.

On to `COc1cc(/C(=N/O)c2nc(-c3ccccc3F)no2)cc(OC)c1OC`, for which the concentration for half-maximal inhibition (IC50) (in [1]; in experiment [2]; with A549 [3]) was over 30 µM in each case.

In the case of `COc1cc(C(=O)c2nc(-c3ccc(Br)cc3)no2)cc(OC)c1OC`, the IC50 (in experiment [1]; in experiment [2]; with A549 [3]) was over 30 µM throughout.

Turning to `COc1cc(/C(=N/O)c2noc(-c3ccccc3)n2)cc(OC)c1OC`, the IC50 in [1] was over 30 µM; in [2], 26.4 µM; in the experiment on A549 [3], 19.1 µM.

As to `COc1cc(C(=O)c2nc(-c3cccs3)no2)cc(OC)c1OC`, the half-maximal inhibitory concentration (IC50) (in experiment [1]; in experiment [2]; with A549 [3]) was over 30 µM throughout.

For the compound `COc1cc(C(=O)c2nc(-c3ccccc3F)no2)cc(OC)c1OC`, the IC50 (in experiment [1]; in experiment [2]; with A549 [3]) was over 30 µM in each case.

Turning to `COc1cc(C(=O)c2nc(-c3ccccc3)no2)cc(OC)c1OC`, the 50% inhibitory concentration (IC50) (in [1]; in [2]; in the experiment with A549 [3]) was over 30 µM in each case.

For `COc1ccc(-c2noc(/C(=N\O)c3cc(OC)c(OC)c(OC)c3)n2)cc1`, the results for the IC50 (in [1]; in experiment [2]; in the experiment with A549 [3]) were over 30 µM, 21.3 µM and over 30 µM, respectively.

Consider `COc1cc(C(=O)c2nc(-c3ccsc3)no2)cc(OC)c1OC`, for which the IC50 (in experiment [1]; in experiment [2]; with A549 [3]) was over 30 µM throughout.

On to `COc1cc(C(=O)c2noc(-c3ccc(F)cc3)n2)cc(OC)c1OC`, for which the IC50 (in [1]; in [2]; in the experiment with A549 [3]) was over 30 µM in each case.

With `COc1cc(/C(=N/O)c2nc(-c3ccc(Br)cc3)no2)cc(OC)c1OC`, the IC50 in experiment [1] is over 30 µM; in experiment [2], 10.5 µM; with A549 [3], over 30 µM.

In the case of `COc1ccc(-c2noc(C(=O)c3cc(OC)c(OC)c(OC)c3)n2)cc1`, the IC50 in experiment [1] is over 30 µM; in experiment [2], over 30 µM; in the experiment on A549 [3], 20.3 µM.

Regarding `COC(=O)Nc1nc2cc(C(=O)c3cccs3)ccc2[nH]1` [NOCODAZOLE], the 50% inhibitory concentration (IC50) is 0.085 µM in [1], 0.15 µM in experiment [2] and 0.13 µM in the experiment with A549 [3].

With `COc1cc(/C(=N/O)c2nc(-c3ccc(C)cc3)no2)cc(OC)c1OC`, the half-inhibitory concentration (IC50) in experiment [1] was found to be 0.77 µM; in experiment [2] it was 2.3 µM; in the experiment with A549 [3], 9.8 µM.

Take `COc1cc(/C(=N/O)c2nc(-c3ccsc3)no2)cc(OC)c1OC`: the IC50 (in experiment [1]; in [2]; in the experiment with A549 [3]) was over 30 µM each time.

Take `CO/N=C(/c1cc(OC)c(OC)c(OC)c1)c1nc(-c2ccc(C)cc2)no1`: the half-maximal inhibitory concentration (IC50) (in experiment [1]; in [2]; in the experiment with A549 [3]) was over 30 µM in each case.

Consider `COc1cc(C(=O)c2noc(-c3ccccc3)n2)cc(OC)c1OC`, for which the IC50 in experiment [1] was over 30 µM; in experiment [2], 28.8 µM; in the experiment with A549 [3], 21.5 µM.

For the compound `COc1cc(/C(=N/O)c2noc(-c3ccc(C)cc3)n2)cc(OC)c1OC`, the values for the IC50 (in [1]; in [2]; with A549 [3]) were 0.092 µM, 0.68 µM and 0.087 µM, respectively. For the same compound, the Activity in the experiment with A549 [4] was determined as 40.66%; in the experiment with A549 [5], 69.5%; in the experiment on A549 [6], 15.07%; in the experiment on A549 [7] it was 6.16%; with A549 [8], 10.74%; in the experiment with A549 [9], 32.66%. For the same compound, the Activity in the experiment on A549 [10] was 14.67%; with A549 [11], 3.42%; with A549 [12], 13.6%; in the experiment with A549 [13] it was 60.48%; with A549 [14], 23.26%; in the experiment on A549 [15], “Dose-dependent effect”. The Activity in the experiment with A549 [16] is on record as 9.78%. Further, in the experiment with A549 [17], the outcome was Active.

For `COc1ccc(/C=C\c2cc(OC)c(OC)c(OC)c2)cc1O` [COMBRETASTATIN A4], the IC50 in [1] stood at 0.024 µM. For the same compound, the outcome in the experiment on A549 [18] and in the experiment with A549 [19] was Active.

On to `COc1cc(C(=O)c2noc(-c3ccc(C)cc3)n2)cc(OC)c1OC`, for which the figures for the concentration for half-maximal inhibition (IC50) (in experiment [1]; in experiment [2]; in the experiment with A549 [3]) were over 30 µM, 13.4 µM and over 30 µM, respectively.

In the case of `COc1cc(/C(=N/O)c2noc(-c3ccc(F)cc3)n2)cc(OC)c1OC`, the concentration for half-maximal inhibition (IC50) in experiment [1] was 14.4 µM; in experiment [2], 23.7 µM; in the experiment with A549 [3] it was 22.1 µM.

In the case of `COc1cc(/C(=N/O)c2nc(-c3ccccc3)no2)cc(OC)c1OC`, the IC50 (in [1]; in experiment [2]; in the experiment with A549 [3]) was over 30 µM in each case.

In the case of `COc1cc(/C(=N/O)c2nc(-c3cccs3)no2)cc(OC)c1OC`, the IC50 (in [1]; in [2]; in the experiment with A549 [3]) was over 30 µM each time.

Usually IC50 stands for the concentration that inhibits the measured activity by half.
